This passage reports mutagenic call results from PubChem BioAssay AID1259407 (Chemical Carcinogenesis Research Information System (CCRIS), 2018).

The test system of the series is CCRIS mutagenicity, Ames/micronucleus/aberration tests. Briefly: CCRIS mutagenicity studies. The settings on record: Test System: AMES SALMONELLA TYPHIMURIUM
Setting [1] is: Strain/Indicator: TA100, Metabolic Activation: RAT, LIVER, S-9, AROCLOR 1254, Method: PREINCUBATION
Setting [2] is: Strain/Indicator: TA98, Metabolic Activation: NONE, Method: STANDARD PLATE.
The mark [3] stands for this setting: Strain/Indicator: TA100, Metabolic Activation: NONE, Method: STANDARD PLATE.
[4] abbreviates: Strain/Indicator: TA100, Metabolic Activation: NONE, Method: PREINCUBATION
The mark [5] stands for this setting: Strain/Indicator: TA1535, Metabolic Activation: NONE, Method: STANDARD PLATE.
[6] abbreviates: Strain/Indicator: TA1537, Metabolic Activation: NONE, Method: STANDARD PLATE.

Molecules are shown by their SMILES. Active and inactive are the calls of the source. How the calls were made is not given here.

`CC(=O)NC[C@H](O)COc1cccc2ccccc12`: the mutagenic call (Strain/Indicator: TA98, Metabolic Activation: RAT, LIVER, S-9, AROCLOR 1254, Method: PREINCUBATION) is “inactive; negative”; the mutagenic call under setting [1] is “inactive; negative”; the mutagenic call (Strain/Indicator: TA104, Metabolic Activation: RAT, LIVER, S-9, AROCLOR 1254, Method: PREINCUBATION) was “active; positive”; the mutagenic call (Strain/Indicator: TA1535, Metabolic Activation: RAT, LIVER, S-9, AROCLOR 1254, Method: PREINCUBATION) is “inactive; negative”; the mutagenic call (Strain/Indicator: TA1538, Metabolic Activation: RAT, LIVER, S-9, AROCLOR 1254, Method: PREINCUBATION) was “inactive; negative”; the mutagenic call (Strain/Indicator: YG1021, Metabolic Activation: RAT, LIVER, S-9, AROCLOR 1254, Method: PREINCUBATION) was “inactive; negative”. The mutagenic call (Strain/Indicator: YG1024, Metabolic Activation: RAT, LIVER, S-9, AROCLOR 1254, Method: PREINCUBATION) is “inactive; negative”; the mutagenic call (Strain/Indicator: YG1026, Metabolic Activation: RAT, LIVER, S-9, AROCLOR 1254, Method: PREINCUBATION) is “inactive; negative”; the mutagenic call (Strain/Indicator: YG1029, Metabolic Activation: RAT, LIVER, S-9, AROCLOR 1254, Method: PREINCUBATION) was “active; positive”; the mutagenic call (Strain/Indicator: YG1041, Metabolic Activation: RAT, LIVER, S-9, AROCLOR 1254, Method: PREINCUBATION) is “inactive; negative”; the mutagenic call (Strain/Indicator: YG1042, Metabolic Activation: RAT, LIVER, S-9, AROCLOR 1254, Method: PREINCUBATION) is “inactive; negative”; the mutagenic call (Strain/Indicator: YG3003, Metabolic Activation: RAT, LIVER, S-9, AROCLOR 1254, Method: PREINCUBATION) was “active; positive”.
For `C=C(C)C1CCC(=C)C2C3=C(C[C@@H](C)C3=O)C(=O)C(C)=C[C@@H]12` (stereo partly drawn), the mutagenic call runs as follows: under setting [2], “inactive; negative”; (Strain/Indicator: TA98, Method: STANDARD PLATE) “inactive; negative”; under setting [3], “inactive; negative”; (Strain/Indicator: TA100, Method: STANDARD PLATE) “inactive; negative”.
In the case of `CC(=O)Nc1ccccc1N`, the mutagenic call (Strain/Indicator: TA97, Metabolic Activation: HAMSTER, LIVER, S-9, AROCLOR 1254 (10%), Method: PREINCUBATION) was “active; positive”; the mutagenic call (Strain/Indicator: TA97, Metabolic Activation: NONE, Method: PREINCUBATION) is “active; positive”; the mutagenic call (Strain/Indicator: TA97, Metabolic Activation: RAT, LIVER, S-9, AROCLOR 1254 (10%), Method: PREINCUBATION) is “active; positive”; the mutagenic call (Strain/Indicator: TA98, Metabolic Activation: HAMSTER, LIVER, S-9, AROCLOR 1254 (10%), Method: PREINCUBATION) is “active; positive”; the mutagenic call (Strain/Indicator: TA98, Metabolic Activation: NONE, Method: PREINCUBATION) was “inactive; negative”; the mutagenic call (Strain/Indicator: TA98, Metabolic Activation: RAT, LIVER, S-9, AROCLOR 1254 (10%), Method: PREINCUBATION) was “active; positive”. In addition, the mutagenic call is “active; positive” (Strain/Indicator: TA100, Metabolic Activation: HAMSTER, LIVER, S-9, AROCLOR 1254 (10%), Method: PREINCUBATION); “inactive; negative” under setting [4]; “active; positive” (Strain/Indicator: TA100, Metabolic Activation: RAT, LIVER, S-9, AROCLOR 1254 (10%), Method: PREINCUBATION); “active; positive” (Strain/Indicator: TA1535, Metabolic Activation: HAMSTER, LIVER, S-9, AROCLOR 1254 (10%), Method: PREINCUBATION); “inactive; negative” (Strain/Indicator: TA1535, Metabolic Activation: NONE, Method: PREINCUBATION); “active; positive” (Strain/Indicator: TA1535, Metabolic Activation: RAT, LIVER, S-9, AROCLOR 1254 (10%), Method: PREINCUBATION).
With `CC(C)(c1ccc(OCC(O)CO)cc1)c1ccc(OCC(O)CO)cc1` (stereo not drawn), the mutagenic call under setting [2] was “inactive; negative”; the mutagenic call (Strain/Indicator: TA98, Metabolic Activation: RAT LIVER S-9, PHENOBARBITAL/METHYLCHOLANTHRENE (4%), Method: STANDARD PLATE) was “inactive; negative”; the mutagenic call under setting [3] is “inactive; negative”; the mutagenic call (Strain/Indicator: TA100, Metabolic Activation: RAT LIVER S-9, PHENOBARBITAL/METHYLCHOLANTHRENE (4%), Method: STANDARD PLATE) is “inactive; negative”; the mutagenic call under setting [5] is “inactive; negative”; the mutagenic call (Strain/Indicator: TA1535, Metabolic Activation: RAT LIVER S-9, PHENOBARBITAL/METHYLCHOLANTHRENE (10%), Method: STANDARD PLATE) is “inactive; negative”. For the same compound, the mutagenic call is, setting by setting: under setting [6], “inactive; negative”; (Strain/Indicator: TA1737, Metabolic Activation: RAT LIVER S-9, PHENOBARBITAL/METHYLCHOLANTHRENE (10%), Method: STANDARD PLATE) “inactive; negative”.
`C=CC(=O)OCCCCCC`: the mutagenic call under setting [2] is “inactive; negative”; the mutagenic call (Strain/Indicator: TA98, Metabolic Activation: RAT, LIVER, S-9, AROCLOR 1254, Method: STANDARD PLATE) is “inactive; negative”; the mutagenic call (Strain/Indicator: TA98, Metabolic Activation: RAT, LIVER, S-9, SODIUM PHENOBARBITAL, Method: STANDARD PLATE) is “inactive; negative”; the mutagenic call under setting [4] is “inactive; negative”; the mutagenic call under setting [3] is “inactive; negative”; the mutagenic call under setting [1] was “inactive; negative”. In addition, the mutagenic call was “inactive; negative” (Strain/Indicator: TA100, Metabolic Activation: RAT, LIVER, S-9, AROCLOR 1254, Method: STANDARD PLATE); “inactive; negative” (Strain/Indicator: TA100, Metabolic Activation: RAT, LIVER, S-9, SODIUM PHENOBARBITAL, Method: STANDARD PLATE); “inactive; negative” under setting [5]; “inactive; negative” (Strain/Indicator: TA1535, Metabolic Activation: RAT, LIVER, S-9, AROCLOR 1254, Method: STANDARD PLATE); “inactive; negative” (Strain/Indicator: TA1535, Metabolic Activation: RAT, LIVER, S-9, SODIUM PHENOBARBITAL, Method: STANDARD PLATE); “inactive; negative” under setting [6]. For the same compound, the mutagenic call is “inactive; negative” (Strain/Indicator: TA1537, Metabolic Activation: RAT, LIVER, S-9, AROCLOR 1254, Method: STANDARD PLATE); “inactive; negative” (Strain/Indicator: TA1537, Metabolic Activation: RAT, LIVER, S-9, SODIUM PHENOBARBITAL, Method: STANDARD PLATE); “inactive; negative” (Strain/Indicator: TA1538, Metabolic Activation: NONE, Method: STANDARD PLATE); “inactive; negative” (Strain/Indicator: TA1538, Metabolic Activation: RAT, LIVER, S-9, AROCLOR 1254, Method: STANDARD PLATE); “inactive; negative” (Strain/Indicator: TA1538, Metabolic Activation: RAT, LIVER, S-9, SODIUM PHENOBARBITAL, Method: STANDARD PLATE).
